Results taken from the supplement of paper PMC10307832.

What was measured:
Experiment in all cases: relative viability (nuclei count vs DMSO), 5 days (fraction); higher = more cells survive
[1] = test system: NCI-H1623
Summary of the method: (§1)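 Values are medians from duplicate plates. Each reflects relative viability, defined as the nuclei count of treated wells over that of vehicle wells. Lung cancer cell lines in 1536-well plates were pin-tool dosed one day after seeding with one drug alone or with a fixed anchor-drug dose plus five library-drug doses (not always all listed) in √10 steps, then fixed, stained and imaged at 4× after 5 days.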

[2] = test system: NCI-H1648
Summary of the method: as §1

[3] = test system: NCI-H1355
Summary of the method: as §1

[4] = test system: A549
Summary of the method: as §1

[5] = test system: NCI-H1703
Summary of the method: as §1

[6] = test system: IA-LM
Summary of the method: as §1

[7] = test system: NCI-H1299
Summary of the method: as §1

[8] = test system: Calu-6
Summary of the method: as §1

[9] = test system: EBC-1
Summary of the method: as §1

SMILES: COc1cc(N2CCC(C(N)=O)CC2)ccc1Nc1nc(N)c(Cl)c(Nc2ccccc2S(=O)(=O)C(C)C)n1 [HG-5-88-01] + COc1cccc2cc(-c3nc([C@H]4CC[C@H](C(=O)O)CC4)n4ncnc(N)c34)[nH]c12 [OSI-027] (partner 0.5 µM)
- relative viability ([1]; first compound 0.04 µM): 0.451
- relative viability ([1]; first compound 0.1265 µM): 0.378
- relative viability ([1]; first compound 0.4 µM): 0.408
- relative viability ([1]; first compound 4 µM): 0.296
- relative viability ([2]; first compound 0.04 µM): 0.257
- relative viability ([2]; first compound 0.1265 µM): 0.258
- relative viability ([2]; first compound 0.4 µM): 0.259
- relative viability ([2]; first compound 1.265 µM): 0.28
- relative viability ([2]; first compound 4 µM): 0.29
- relative viability ([3]; first compound 0.04 µM): 0.341
- relative viability ([3]; first compound 0.1265 µM): 0.419
- relative viability ([3]; first compound 0.4 µM): 0.3
- relative viability ([3]; first compound 1.265 µM): 0.253
- relative viability ([3]; first compound 4 µM): 0.237

SMILES: CC(C)Oc1cc(Nc2nc(N[C@@H](C)c3ccc(F)cn3)ncc2Cl)n[nH]1 [AZ23] + O=C(c1cc(Cc2n[nH]c(=O)c3ccccc23)ccc1F)N1CCN(C(=O)C2CC2)CC1 [Olaparib] (partner 8 µM)
- relative viability ([4]; first compound 0.01 µM): 0.201
- relative viability ([4]; first compound 0.03162 µM): 0.54
- relative viability ([4]; first compound 0.3162 µM): 0.327
- relative viability ([5]; first compound 0.03162 µM): 0.411
- relative viability ([5]; first compound 0.3162 µM): 0.397
- relative viability ([6]; first compound 0.01 µM): 0.79
- relative viability ([6]; first compound 0.03162 µM): 0.914
- relative viability ([6]; first compound 0.3162 µM): 0.949
- relative viability ([7]; first compound 0.01 µM): 1.06
- relative viability ([7]; first compound 0.03162 µM): 0.984
- relative viability ([7]; first compound 0.3162 µM): 1.03
- relative viability ([8]; first compound 0.03162 µM): 0.662
- relative viability ([8]; first compound 0.3162 µM): 0.644
- relative viability ([2]; first compound 0.01 µM): 0.6
- relative viability ([2]; first compound 0.03162 µM): 1.01
- relative viability ([2]; first compound 0.3162 µM): 0.697
- relative viability ([9]; first compound 0.01 µM): 0.884
- relative viability ([9]; first compound 0.03162 µM): 0.767
- relative viability ([9]; first compound 0.3162 µM): 0.734
- relative viability ([3]; first compound 0.01 µM): 0.808
- relative viability ([3]; first compound 0.03162 µM): 0.771
- relative viability ([3]; first compound 0.3162 µM): 0.699

SMILES: CC(C)Oc1cc(Nc2nc(N[C@@H](C)c3ccc(F)cn3)ncc2Cl)n[nH]1 [AZ23] + CCNC(=O)c1noc(-c2cc(C(C)C)c(O)cc2O)c1-c1ccc(CN2CCOCC2)cc1 [Luminespib] (partner 0.01 µM)
- relative viability ([1]; first compound 0.01 µM): 0.476
- relative viability ([1]; first compound 0.03162 µM): 0.49
- relative viability ([1]; first compound 0.3162 µM): 0.529
- relative viability ([3]; first compound 0.01 µM): 0.671
- relative viability ([3]; first compound 0.03162 µM): 0.768
- relative viability ([3]; first compound 0.3162 µM): 0.715

SMILES: COc1cc(N2CCC(C(N)=O)CC2)ccc1Nc1nc(N)c(Cl)c(Nc2ccccc2S(=O)(=O)C(C)C)n1 [HG-5-88-01] + Cc1cc(Nc2cc(N3CCN(C)CC3)nc(Sc3ccc(NC(=O)C4CC4)cc3)n2)n[nH]1 [Tozasertib] (partner 0.1 µM)
- relative viability ([1]; first compound 0.04 µM): 0.512
- relative viability ([1]; first compound 0.1265 µM): 0.449
- relative viability ([1]; first compound 0.4 µM): 0.399
- relative viability ([1]; first compound 4 µM): 0.377
- relative viability ([2]; first compound 0.04 µM): 0.406
- relative viability ([2]; first compound 0.1265 µM): 0.472
- relative viability ([2]; first compound 0.4 µM): 0.43
- relative viability ([2]; first compound 1.265 µM): 0.183
- relative viability ([2]; first compound 4 µM): 0.329
- relative viability ([3]; first compound 0.04 µM): 0.601
- relative viability ([3]; first compound 0.1265 µM): 0.545
- relative viability ([3]; first compound 0.4 µM): 0.493
- relative viability ([3]; first compound 1.265 µM): 0.454
- relative viability ([3]; first compound 4 µM): 0.342

SMILES: C[C@@H]1CN(CC(=O)Nc2ccc3c(c2)Cc2cccc(-c4cc(=O)cc(N5CCOCC5)o4)c2S3)C[C@H](C)O1 + N=C(N)NC(=N)NCCc1ccccc1 [Phenformin] (partner 250 µM)
- relative viability ([1]; first compound 0.04 µM): 0.523
- relative viability ([1]; first compound 0.1265 µM): 0.617
- relative viability ([1]; first compound 0.4 µM): 0.54
- relative viability ([1]; first compound 4 µM): 0.61
- relative viability ([4]; first compound 0.04 µM): 0.106
- relative viability ([4]; first compound 0.1265 µM): 0.197
- relative viability ([4]; first compound 0.4 µM): 0.252
- relative viability ([4]; first compound 4 µM): 0.138
- relative viability ([3]; first compound 0.04 µM): 0.455
- relative viability ([3]; first compound 0.1265 µM): 0.482
- relative viability ([3]; first compound 0.4 µM): 0.433
- relative viability ([3]; first compound 4 µM): 0.43

SMILES: C[C@@H]1CN(CC(=O)Nc2ccc3c(c2)Cc2cccc(-c4cc(=O)cc(N5CCOCC5)o4)c2S3)C[C@H](C)O1 + Cc1nc(Nc2ncc(C(=O)Nc3c(C)cccc3Cl)s2)cc(N2CCN(CCO)CC2)n1 [Dasatinib] (partner 0.075 µM)
- relative viability ([1]; first compound 0.04 µM): 0.57
- relative viability ([1]; first compound 0.1265 µM): 0.555
- relative viability ([1]; first compound 0.4 µM): 0.51
- relative viability ([1]; first compound 4 µM): 0.588
- relative viability ([3]; first compound 0.04 µM): 0.639
- relative viability ([3]; first compound 0.1265 µM): 0.723
- relative viability ([3]; first compound 0.4 µM): 0.604
- relative viability ([3]; first compound 4 µM): 0.646

SMILES: Clc1ccc(Nc2nnc(Cc3ccncc3)c3ccccc23)cc1 [Vatalanib] + Cc1nc(Nc2ncc(C(=O)Nc3c(C)cccc3Cl)s2)cc(N2CCN(CCO)CC2)n1 [Dasatinib] (partner 0.075 µM)
- relative viability ([1]; first compound 0.04 µM): 0.449
- relative viability ([1]; first compound 0.1265 µM): 0.619
- relative viability ([1]; first compound 0.4 µM): 0.545
- relative viability ([1]; first compound 1.265 µM): 0.533
- relative viability ([1]; first compound 4 µM): 0.435
- relative viability ([3]; first compound 0.04 µM): 0.75
- relative viability ([3]; first compound 0.1265 µM): 0.728
- relative viability ([3]; first compound 0.4 µM): 0.778
- relative viability ([3]; first compound 1.265 µM): 0.603
- relative viability ([3]; first compound 4 µM): 0.633
